# Data: patent US20200045961A1, “HERBICIDAL MIXTURE FOR USE ON WEEDS” (Adama Agan Ltd., priority 2017, published 2020)
# Columns and labels:
# Experiment in all cases: Field trial, tank mix of Propaquizafop + Fomesafen on Soybean, weed control
# Type in all cases: in vivo
# Dinebra arabica = system: Dinebra arabica
# Excerpt: (§1) In the context of the present subject matter, the term “synergy” is as defined by Colby S. R. in an article entitled “Calculation of the synergistic and antagonistic responses of herbicide combinations” published in the journal Weeds, 1967, 15, p. 20-22, incorporated herein by reference in its entirety. The action expected for a given combination of […] active ingredients can be calculated as follows: […]
# (§2) The herbicides were applied using the following applications rates:
# (§3) The applications were applied 20 DAS. Design & Plot size: RBD & 25 Sq.mt.
# (§4) Species wise weed count may be recorded at 15, 30 and 45 DAA (Days After Application). A subjective score of damage done by the herbicide on the plants may be given based on the weed count compared to the untreated checks. A score of 100% indicated complete control and a score of 0% indicates zero herbicide effect.
# Acalypha indica = system: Acalypha indica
# Excerpt: as §1
# (§5) When the percentage of herbicidal control observed for the combination is greater than the expected percentage, there is a synergistic effect. When the percentage of control observed for the combination is equal to the expected percentage, there is an additive effect and wherein the percentage of herbicidal control observed for the combination is lower than the expected percentage, there is an antagonistic effect.
# as §2, §3, §4
# (§6) The % control observed may be calculated as follows: […]
# (§7) The synergy of the mixture of fomesafen and propaquizafop may be calculated using the formula: […]
# Eleusine indica = system: Eleusine indica
# Excerpt: as §1, §5, §2, §3, §4, §6, §7
# Digera arvensis = system: Digera arvensis
# Excerpt: as §1, §5, §2, §3, §4, §6, §7
# Commelina benghalensis = system: Commelina benghalensis
# Excerpt: as §1, §5, §2, §3, §4, §6, §7
# Amaranthus viridis = system: Amaranthus viridis
# Excerpt: as §1, §5, §2, §3, §4, §6, §7
# Echinochloa colona = system: Echinochloa colona
# Excerpt: as §1, §5, §2, §3, §4, §6, §7
smiles,measurement,setting,value
"CS(=O)(=O)NC(=O)c1cc(Oc2ccc(C(F)(F)F)cc2Cl)ccc1[N+](=O)[O-] [Fomesafen, 5-[2-chloro-4-(trifluoromethyl)phenoxy]-N-(methylsulfonyl)-2-nitrobenzamide]",% control observed,"Dinebra arabica; 500 ml/Acre, 15DAA",2.62%
same,% control observed,"Dinebra arabica; 500 ml/Acre, 45DAA",0.21%
same,% control observed,"Dinebra arabica; 750 ml/Acre, 15DAA",15.2%
same,% control observed,"Dinebra arabica; 750 ml/Acre, 30DAA",11.1%
same,% control observed,"Dinebra arabica; 750 ml/Acre, 45DAA",10%
same,% control observed,"Dinebra arabica; 1000 ml/Acre, 15DAA",23.4%
same,% control observed,"Dinebra arabica; 1000 ml/Acre, 30DAA",16.4%
same,% control observed,"Dinebra arabica; 1000 ml/Acre, 45DAA",14.3%
same,% control observed,"Acalypha indica; 500 ml/Acre, 15DAA",58.2%
same,% control observed,"Acalypha indica; 500 ml/Acre, 30DAA",55.4%
same,% control observed,"Acalypha indica; 500 ml/Acre, 45DAA",53.8%
same,% control observed,"Acalypha indica; 750 ml/Acre, 15DAA",63.8%
same,% control observed,"Acalypha indica; 750 ml/Acre, 30DAA",61.7%
same,% control observed,"Acalypha indica; 750 ml/Acre, 45DAA",60.6%
same,% control observed,"Acalypha indica; 1000 ml/Acre, 15DAA",75.9%
same,% control observed,"Acalypha indica; 1000 ml/Acre, 30DAA",73.6%
same,% control observed,"Acalypha indica; 1000 ml/Acre, 45DAA",72.6%
same,% control observed,"Eleusine indica; 500 ml/Acre, 15DAA",8.2%
same,% control observed,"Eleusine indica; 500 ml/Acre, 30DAA",4.7%
same,% control observed,"Eleusine indica; 500 ml/Acre, 45DAA",3.3%
same,% control observed,"Eleusine indica; 750 ml/Acre, 15DAA",12.6%
same,% control observed,"Eleusine indica; 750 ml/Acre, 30DAA",6.3%
same,% control observed,"Eleusine indica; 750 ml/Acre, 45DAA",5%
same,% control observed,"Eleusine indica; 1000 ml/Acre, 15DAA",17.1%
same,% control observed,"Eleusine indica; 1000 ml/Acre, 30DAA",8.9%
same,% control observed,"Eleusine indica; 1000 ml/Acre, 45DAA",7.5%
same,% control observed,"Digera arvensis; 500 ml/Acre, 15DAA",70%
same,% control observed,"Digera arvensis; 500 ml/Acre, 30DAA",68.5%
same,% control observed,"Digera arvensis; 500 ml/Acre, 45DAA",66.6%
same,% control observed,"Digera arvensis; 750 ml/Acre, 15DAA",74.2%
same,% control observed,"Digera arvensis; 750 ml/Acre, 30DAA",71.5%
same,% control observed,"Digera arvensis; 750 ml/Acre, 45DAA",70.5%
same,% control observed,"Digera arvensis; 1000 ml/Acre, 15DAA",78.2%
same,% control observed,"Digera arvensis; 1000 ml/Acre, 30DAA",75.2%
same,% control observed,"Digera arvensis; 1000 ml/Acre, 45DAA",74%
same,% control observed,"Commelina benghalensis; 500 ml/Acre, 15DAA",66.2%
same,% control observed,"Commelina benghalensis; 500 ml/Acre, 30DAA",64.2%
same,% control observed,"Commelina benghalensis; 500 ml/Acre, 45DAA",62.7%
same,% control observed,"Commelina benghalensis; 750 ml/Acre, 15DAA",72.8%
same,% control observed,"Commelina benghalensis; 750 ml/Acre, 30DAA",70.2%
same,% control observed,"Commelina benghalensis; 750 ml/Acre, 45DAA",69.7%
same,% control observed,"Commelina benghalensis; 1000 ml/Acre, 15DAA",77.8%
same,% control observed,"Commelina benghalensis; 1000 ml/Acre, 30DAA",75%
same,% control observed,"Commelina benghalensis; 1000 ml/Acre, 45DAA",72.5%
same,% control observed,"Amaranthus viridis; 500 ml/Acre, 15DAA",67.7%
same,% control observed,"Amaranthus viridis; 500 ml/Acre, 30DAA",66.9%
same,% control observed,"Amaranthus viridis; 500 ml/Acre, 45DAA",64.8%
same,% control observed,"Amaranthus viridis; 750 ml/Acre, 15DAA",71.3%
same,% control observed,"Amaranthus viridis; 750 ml/Acre, 30DAA",70.5%
same,% control observed,"Amaranthus viridis; 750 ml/Acre, 45DAA",69.1%
same,% control observed,"Amaranthus viridis; 1000 ml/Acre, 15DAA",74.7%
same,% control observed,"Amaranthus viridis; 1000 ml/Acre, 30DAA",73.7%
same,% control observed,"Amaranthus viridis; 1000 ml/Acre, 45DAA",71.1%
same,% control observed,"Echinochloa colona; 500 ml/Acre, 15DAA",8.91%
same,% control observed,"Echinochloa colona; 500 ml/Acre, 30DAA",6.65%
same,% control observed,"Echinochloa colona; 500 ml/Acre, 45DAA",5.02%
same,% control observed,"Echinochloa colona; 750 ml/Acre, 15DAA",14%
same,% control observed,"Echinochloa colona; 750 ml/Acre, 30DAA",10.7%
same,% control observed,"Echinochloa colona; 750 ml/Acre, 45DAA",7.5%
same,% control observed,"Echinochloa colona; 1000 ml/Acre, 15DAA",18.2%
same,% control observed,"Echinochloa colona; 1000 ml/Acre, 30DAA",15.8%
same,% control observed,"Echinochloa colona; 1000 ml/Acre, 45DAA",13.6%
"CC(C)=NOCCOC(=O)[C@@H](C)Oc1ccc(Oc2cnc3cc(Cl)ccc3n2)cc1 [Propaquizafop, (R)-2-[[(1-methylethylidene)amino]oxy]ethyl 2-[4-[(6-chloro-2-quinoxalinyl)oxy]phenoxy]propanoate]",% control observed,"Dinebra arabica; 400 ml/Acre, 15DAA",68.2%
same,% control observed,"Dinebra arabica; 400 ml/Acre, 30DAA",67%
same,% control observed,"Dinebra arabica; 400 ml/Acre, 45DAA",65%
same,% control observed,"Dinebra arabica; 500 ml/Acre, 15DAA",72.3%
same,% control observed,"Dinebra arabica; 500 ml/Acre, 30DAA",69.1%
same,% control observed,"Dinebra arabica; 500 ml/Acre, 45DAA",66%
same,% control observed,"Acalypha indica; 400 ml/Acre, 15DAA",7.1%
same,% control observed,"Acalypha indica; 400 ml/Acre, 30DAA",3.7%
same,% control observed,"Acalypha indica; 400 ml/Acre, 45DAA",2.9%
same,% control observed,"Acalypha indica; 500 ml/Acre, 15DAA",25.2%
same,% control observed,"Acalypha indica; 500 ml/Acre, 30DAA",12.3%
same,% control observed,"Acalypha indica; 500 ml/Acre, 45DAA",9.8%
same,% control observed,"Eleusine indica; 400 ml/Acre, 15DAA",64%
same,% control observed,"Eleusine indica; 400 ml/Acre, 30DAA",56.7%
same,% control observed,"Eleusine indica; 400 ml/Acre, 45DAA",53.4%
same,% control observed,"Eleusine indica; 500 ml/Acre, 15DAA",65.5%
same,% control observed,"Eleusine indica; 500 ml/Acre, 30DAA",57.7%
same,% control observed,"Eleusine indica; 500 ml/Acre, 45DAA",55.2%
same,% control observed,"Digera arvensis; 400 ml/Acre, 15DAA",13.9%
same,% control observed,"Digera arvensis; 400 ml/Acre, 30DAA",9.3%
same,% control observed,"Digera arvensis; 400 ml/Acre, 45DAA",2.1%
same,% control observed,"Digera arvensis; 500 ml/Acre, 15DAA",19.5%
same,% control observed,"Digera arvensis; 500 ml/Acre, 30DAA",15.5%
same,% control observed,"Digera arvensis; 500 ml/Acre, 45DAA",14.4%
same,% control observed,"Commelina benghalensis; 400 ml/Acre, 15DAA",6.8%
same,% control observed,"Commelina benghalensis; 400 ml/Acre, 30DAA",3.2%
same,% control observed,"Commelina benghalensis; 400 ml/Acre, 45DAA",2%
same,% control observed,"Commelina benghalensis; 500 ml/Acre, 15DAA",16.6%
same,% control observed,"Commelina benghalensis; 500 ml/Acre, 30DAA",10.5%
same,% control observed,"Commelina benghalensis; 500 ml/Acre, 45DAA",7.7%
same,% control observed,"Amaranthus viridis; 400 ml/Acre, 15DAA",8.2%
same,% control observed,"Amaranthus viridis; 400 ml/Acre, 30DAA",2.6%
same,% control observed,"Amaranthus viridis; 400 ml/Acre, 45DAA",2.3%
same,% control observed,"Amaranthus viridis; 500 ml/Acre, 15DAA",13.6%
same,% control observed,"Amaranthus viridis; 500 ml/Acre, 30DAA",7.6%
same,% control observed,"Amaranthus viridis; 500 ml/Acre, 45DAA",7.1%
same,% control observed,"Echinochloa colona; 400 ml/Acre, 15DAA",72.9%
same,% control observed,"Echinochloa colona; 400 ml/Acre, 30DAA",70.8%
same,% control observed,"Echinochloa colona; 400 ml/Acre, 45DAA",70.4%
same,% control observed,"Echinochloa colona; 500 ml/Acre, 15DAA",75.8%
same,% control observed,"Echinochloa colona; 500 ml/Acre, 30DAA",73.9%
same,% control observed,"Echinochloa colona; 500 ml/Acre, 45DAA",72.9%
